Laboratory results reported in PMC3888668 (Biological psychiatry, 2008).
Structures can show the parent of a compound that is named as a salt. Where two headings read alike, the source gives them in different places. Marks after values point to notes of the source that are not given here.

Key:
[1] = Preliminary pharmacokinetics in plasma; format: in vivo; details: IP, rat plasma
[2] = target: μ opioid peptide receptor (MOP-R); details: cited from earlier work
rats [3] = experiment: Conditioned place preference; format: in vivo, rat; details: Figure 1C in Supplement 1
[4] = test system: high-ethanol–consuming rats; details: for Preference for Ethanol: intermittent access to 20% ethanol, 24 hours, mean ± SEM, n = 12; for Ethanol intake after 30 min: after 30 min of ethanol access, Figures 2A-2C in Supplement 1; for Ethanol consumption compared with vehicle: after 24 hours of ethanol access, intermittent access 20% ethanol
rats [5] = experiment: Morphine-mediated analgesia; format: in vivo, rat; details: Figures 1A and 1B in Supplement 1
rats [6] = experiment: Anxiety; format: in vivo, rat; details: Figure 1D in Supplement 1
[7] = target: δ opioid peptide receptor (DOP-R); details: cited from earlier work
DOP-R [8] = target: T1, DOP-R (Rattus norvegicus, UniProt P33533); format: biochemical; details: striatal membranes
T1 sequence (P33533 whole entry): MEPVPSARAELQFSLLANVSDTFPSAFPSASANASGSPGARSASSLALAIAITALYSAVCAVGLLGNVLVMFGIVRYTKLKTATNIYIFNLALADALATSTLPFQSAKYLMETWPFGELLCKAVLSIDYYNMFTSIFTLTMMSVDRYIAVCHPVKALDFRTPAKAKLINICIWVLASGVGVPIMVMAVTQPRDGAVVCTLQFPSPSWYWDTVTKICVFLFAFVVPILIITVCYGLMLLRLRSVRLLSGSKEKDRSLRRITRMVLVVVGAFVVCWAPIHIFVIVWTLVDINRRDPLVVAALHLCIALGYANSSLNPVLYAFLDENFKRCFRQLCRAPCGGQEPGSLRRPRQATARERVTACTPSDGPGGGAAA

[9] = test system: high-ethanol–consuming rats; experiment: Daily administration for 28 days, intermittent-access 20% ethanol, naive rats
[10] = test system: low-ethanol–consuming rats; experiment: Continuous-access 10% ethanol two-bottle-choice drinking paradigm; details: for Preference for Ethanol: continuous access to 10% ethanol, mean ± SEM, n = 12
DOP-R [11] = target: T1, DOP-R; format: biochemical; details: [35S]GTPγS binding
[12] = test system: high-ethanol–consuming rats; details: .3–1 mg/kg, IP; 30 min and 24 hours of ethanol access; cited from earlier work

Oc1ccc2c3c1O[C@H]1c4ncc(-c5ccc(Cl)cc5)cc4C[C@@]4(O)[C@@H](C2)N(CC2CC2)CC[C@]314 [SoRI-9409, 5’-(4-Chlorophenyl)-17-(cyclopropylmethyl)-6,7-didehydro-3,14-dihydroxy-4,5-α-epoxypyrido-[2’,3’:6,7]morphinan]
Detection in plasma after dosing [1]: still detectable in plasma at 12 hours after dosing
Elimination half-life ([1]; preliminary investigation): 2.5 h
Ki ([2]; read-out: Ki, binding affinity for the MOP-R): 51 ± 8 nM
reduced binding affinity for the MOP-R relative to naltrexone ([2]; versus naltrexone structure): approximately 20 fold
Conditioned place preference or aversion (rats [3]): does not produce conditioned place preference or aversion
Preference for Ethanol ([4]; 5 mg/kg IP): 49.9 ± 7.3%
Preference for Ethanol ([4]; 15 mg/kg IP): 42.1 ± 7.4 ^a %
Preference for Ethanol ([4]; 30 mg/kg IP): 32.8 ± 4.9 ^a %
Ethanol intake after 30 min [4]: selectively reduced ethanol intake
Ethanol consumption compared with vehicle ([4]; all doses tested, IP): significantly reduced ethanol consumption at all doses
Effectiveness at reducing ethanol consumption compared with naltrexone or naltrindole ([4]; high-ethanol–consuming animals): threefold more effective
Induction of analgesia and hyperalgesia (rats [5]): did not reduce morphine-mediated analgesia or induce analgesia and hyperalgesia
Anxiolytic or anxiogenic effect (rats [6]): is not anxiolytic or anxiogenic
Ki ([7]; read-out: Ki, binding affinity at the DOP-R): 2.2 ± 0.2 nM
higher binding affinity at the DOP-R relative to naltrexone ([7]; versus naltrexone structure): approximately 20 fold
IC50 (DOP-R [8]; read-out: Mean (± SEM) IC50 for Striatal DOP-R Inhibition, DPDPE Inhibition, DPDPE (10 μmol/L)-stimulated [35S]GTPγS binding): 3.5 ± 0.3 nM
IC50 (DOP-R [8]; read-out: Mean (± SEM) IC50 for Striatal DOP-R Inhibition, SNC80 Inhibition, SNC80 (10 μmol/L)-stimulated [35S]GTPγS binding): 31 ± 3.2 nM
IC50 (DOP-R [8]; read-out: Mean (± SEM) IC50 for Striatal DOP-R Inhibition, TAN67 Inhibition, TAN67 (10 μmol/L)-stimulated [35S]GTPγS binding): 56 ± 8.2 nM
Escalation and maintenance of ethanol intake compared with vehicle ([9]; 5 mg/kg IP daily for 28 days (12 ethanol exposures), n = 16): significantly reduced the escalation and maintenance of ethanol intake
Reduction of ethanol intake compared with saline-treated rats ([9]; 5 mg/kg IP daily, for up to 28 days): > 50%
Ethanol consumption compared with vehicle ([10]; 5 mg/kg IP, 24 hours, continuous access 10% ethanol): but not the 5-mg/kg dose
Preference for Ethanol ([10]; 5 mg/kg IP, 24 hours): 39.5 ± 8.6%
Preference for Ethanol ([10]; 15 mg/kg IP, 24 hours): 32.4 ± 7.3 ^b %
Preference for Ethanol ([10]; 30 mg/kg IP, 24 hours): 24.0 ± 6.2 ^b %
Ethanol consumption compared with vehicle ([10]; 15 and 30 mg/kg IP, 24 hours, continuous access 10% ethanol): significantly reduce ethanol consumption

Oc1ccc2c3c1O[C@H]1c4[nH]c5ccccc5c4C[C@@]4(O)[C@@H](C2)N(CC2CC2)CC[C@]314 [Naltrindole, naltrindole]
Preference for Ethanol ([4]; 1 mg/kg IP): 53.4 ± 7.9%
Preference for Ethanol ([4]; 5 mg/kg IP): 55.1 ± 8.3%
Preference for Ethanol ([4]; 10 mg/kg IP): 48.8 ± 6.1%
Ethanol consumption compared with vehicle ([4]; all doses tested, IP): did not significantly affect ethanol consumption
IC50 (DOP-R [8]; Mean (± SEM) IC50 for Striatal DOP-R Inhibition, DPDPE Inhibition, DPDPE (10 μmol/L)-stimulated [35S]GTPγS binding): 0.4 ± 0.02 nM
IC50 (DOP-R [8]; Mean (± SEM) IC50 for Striatal DOP-R Inhibition, SNC80 Inhibition, SNC80 (10 μmol/L)-stimulated [35S]GTPγS binding): 31 ± 3.9 nM
IC50 (DOP-R [8]; Mean (± SEM) IC50 for Striatal DOP-R Inhibition, TAN67 Inhibition, TAN67 (10 μmol/L)-stimulated [35S]GTPγS binding): > 10000 nM
Preference for Ethanol ([10]; 1 mg/kg IP, 24 hours): 38.2 ± 3.7%
Preference for Ethanol ([10]; 5 mg/kg IP, 24 hours): 31.7 ± 4.0%
Preference for Ethanol ([10]; 10 mg/kg IP, 24 hours): 31.0 ± 3.3%
Ethanol consumption compared with vehicle ([10]; 5 and 10 mg/kg IP, 24 hours, continuous access 10% ethanol): significantly reduce ethanol consumption

CN1CCC2(c3cccc(O)c3)Cc3nc4ccccc4cc3CC2C1 (stereo not drawn) [TAN67, (2-methyl-4a (α)-(3-hydroxyphenyl)-1,2,3,4,4a,5,12, 12a(α)-octahydro-quinolino[2,3,3,g]isoquinoline) dihydrobromide]
EC50 (DOP-R [11]; read-out: Mean (± SEM) EC50 for DOP-R Stimulation, Spinal Cord, spinal cord membranes): 3700 ± 2200 nM
EC50 (DOP-R [11]; read-out: Mean (± SEM) EC50 for DOP-R Stimulation, Striatum, striatum membranes): 372 ± 20 nM

O=C1CC[C@@]2(O)[C@H]3Cc4ccc(O)c5c4[C@@]2(CCN3CC2CC2)[C@H]1O5 [Naltrexone]
Preference for Ethanol ([4]; 5 mg/kg IP): 55.2 ± 7.1%
Preference for Ethanol ([4]; 15 mg/kg IP): 54.1 ± 6.4%
Preference for Ethanol ([4]; 30 mg/kg IP): 54.4 ± 4.7%
Ethanol consumption compared with vehicle ([4]; 15 and 30 mg/kg IP): significantly reduce ethanol consumption
Ethanol intake after 30 min [4]: selectively reduced ethanol intake
Ethanol intake at lower doses [12]: reduce ethanol intake after 30 min but not after 24 hours
Preference for Ethanol ([10]; 5 mg/kg IP, 24 hours): 32.7 ± 5.9%
Preference for Ethanol ([10]; 15 mg/kg IP, 24 hours): 33.8 ± 7.3%
Preference for Ethanol ([10]; 30 mg/kg IP, 24 hours): 37.0 ± 4.9%
Ethanol consumption compared with vehicle ([10]; all doses (5, 15, 30 mg/kg IP), after 24 hours of access, continuous access 10% ethanol): did not produce any significant effect on ethanol consumption
Ethanol consumption after a limited access period ([10]; limited access period 1 hour, continuous access 10% ethanol, data not shown): a reduction in ethanol consumption was observed
